Results reported in EP2787958B1, “CHELIDONIUM MAJUS EXTRACTS AND THEIR USE IN THE TREATMENT OF SKIN DISORDERS AND PROMOTION OF SKIN REGENERATION” (priority 2011, dated 2013).
Where two headings read alike, the source gives them in different places.

Assays:
[1] = system: Human dermal fibroblasts (HDF); assay: Mitochondrial dehydrogenase activity (WST-1 formazan assay) in HDF cells; conditions: for Revitalizing agent: 24 hours; for activity at 1 µM / activity at 10 µM: Homo sapiens, Fibroblast, read-out: % mitochondrial dehydrogenase activity ± SD; for mitochondrial dehydrogenase activity (effect in words): fibroblasts
HDF cells [2] = assay: Summary of uses and toxic effects deduced from the cell assays (Table 1); type: cell-based, Human; conditions: for Anti-fibrotic (prevention of scar formation, also from acne) / Cytoprotective (antioxidant, anti-inflammatory and anti-ageing; useful also in the treatment of acne) / Cytotoxic / Irritant / Wound-healing: 24 hours
Description: Antiradical (skin protective): this is deduced from the free radical scavenger effects.
Revitalizing: this is deduced from the increased mitochondrial dehydrogenase effect.
Cytoprotective, with regard to oxidative damage (antioxidant, anti-inflammatory and anti-ageing): this is deduced from antagonising the stimulation of IL-1β and/or IL-6 induced by 100 µM H2O2 and from the absence of changes in cell morphology similar to the ones due to cell senescence.
Wound healing: this is deduced from the effect of inhibiting the production of IL-1β and by the effect of stimulating cell proliferation under standard growth conditions.
Cytotoxicity: this is deduced from the effect of reducing mitochondrial dehydrogenase activity or from the presence of morphologies characteristic of cell senescence.
Irritation: this is deduced from the effect of increased production of IL-6 and/or IL-1β under standard growth conditions.
Said uses in the fields of medicine and cosmetics or the toxic effects of the substances of the invention at a given dosage, for 24 hours, are summarized in Table 1 below.

interleukin 6 (IL-6) = assay: Inflammatory cytokines in cell supernatant (Mosaic ELISA microarray): IL-6; type: cell-based, Human; conditions: for IL-6 ng/(ml* No. of cells from photo) ± SD: 24 hours; for IL-6 production (effect in words): 1-10 µM
Description: (§1) The inflammatory cytokines, CD40 ligand (CD40L), interferon γ (INF-γ), interleukin 1α (IL-1α), interleukin 1β (IL-1β), interleukin 6 (IL-6), interleukin 8 (IL-8), interleukin 17 (IL-17) and tumour necrosis factor α (TNF-α) were determined qualitatively and quantitatively. Each measurement was performed in duplicate using a Mosaic™ ELISA protein microarray assay system from R&D System in accordance with the supplier's instructions. Furthermore, with the aim of obtaining a correlation model between light signal intensity and cytokine concentration, a calibration curve using 6 concentrations was performed for each of them. Analysis of the data was performed using the dedicated Q-View™ Imager software package from Quansys Biosciences

[3] = system: collagen produced by HDF cells; assay: Quantity of collagen produced by the cells (elution of Sirius Red)
[4] = Anti-radical activity (decay of the DPPH radical); type: biochemical; conditions: for Anti-radical (skin protective): 24 hours
Description: With regard to assays aimed at evaluating anti-radical activity, a chemical test was used where the decay of the diphenylpicrylhydrazyl (DPPH) radical is assessed in the absence or in the presence of the test substances. Indeed, the DPPH radical is used to test the ability of substances to act as free radical scavengers. DPPH in solution has a purple colour with a maximum absorbance peak at 517 nm which changes to yellow-colourless when this radical extracts a hydrogen atom from a radical scavenger to give rise to the reduced form DPPH-H. The assay has been conducted in quadruplicate in 96 well microplates (SARSTEDT Tissue Culture Plate 96-well flat bottom cell+). 50 µl of an ethanol solution of the test substance at 2X concentration and then 50 µl of a 200 µM solution of DPPH (MW 168,18, Aldrich 2,2-di(4-tert-octylphenyl)-1-picrylhydrazyl, free radical Lot# MKBF7574V Cat N° 257621-100 mg) have been added to each well of the microplate. A positive control consisting of 0.1 mM vitamin C and a negative control consisting of ethanol alone were included in each microplate. After 30 minutes from the addition of DPPH, photographs of the plates were taken (Canon PowerShot A610 5.0 Mpixels) and read spectrophotometrically at 530 nm.
Based on the analysis of the results reported in Table 9, some substances were selected for further characterisation of their anti-radical activity. For the selected substances, dose-activity curves were obtained and the IC50 value were computed using a non-linear regression model with the Hill equation at variable slope. Such substances had been selected due to both their anti-radical potential and the easiness of their isolation/production. The selection of substances was made in view of cosmetics applications. Moreover their activity on human dermal fibroblasts (HDF) is expected to be useful also for the development of dermatological medications. The selected substances are discussed below.

interleukin 1β (IL-1β) = assay: Inflammatory cytokines in cell supernatant (Mosaic ELISA microarray): IL-1β; type: cell-based, Human; conditions: for IL-1β ng/(ml* No. of cells from photo) ± SD: 24 hours; for IL-1β production (effect in words): 1-10 µM
Description: as §1

HDF cells [5] = assay: Evaluation of cell proliferation (counting of Sirius Red stained cells in photographs); conditions: 24 hours
[6] = Dose 1 µm (coptisine: 1 pm [sic])

In the case of c1c2c(cc3c1OCO3)-c1cc3ccc4c(c3c[n+]1CC2)OCO4 [coptisine], the “concentrations below which no significant effects on mitochondrial dehydrogenase activity are shown” value [1] is reported as “below 1 µM”, the Revitalizing agent [1, 6] is reported as “No” and the Revitalizing agent ([1]; Dose 10 µm) is reported as “No”. For the same molecule, the activity at 1 µM ([1]; 24 h) was 84.5 ± 3.17%, the activity at 10 µM ([1]; 24 h) was 62.3 ± 11.8% and the activity at 1 µM ([1]; 42 h) was 90.1 ± 2.3%. The activity at 10 µM ([1]; 42 h) was 139 ± 5.34%, the “mitochondrial dehydrogenase activity (effect in words)” value ([1]; low dose for a prolonged period of time, to a lesser extent) was “stimulatory effects” and the “mitochondrial dehydrogenase activity (effect in words)” value ([1]; overall) was “mostly inhibitory effects”. For the same molecule, the “Anti-fibrotic (prevention of scar formation, also from acne)” value (HDF cells [2]; [6]) was “No”, the “Cytoprotective (antioxidant, anti-inflammatory and anti-ageing; useful also in the treatment of acne)” value (HDF cells [2]; [6]) was “No” and the Cytotoxic (HDF cells [2]; [6]) was “No”. For the same molecule, the Irritant (HDF cells [2]; [6]) was “Yes (↑IL-6, ↑IL-1β)”, the Wound-healing (HDF cells [2]; [6]) was “No” and the “Anti-fibrotic (prevention of scar formation, also from acne)” value (HDF cells [2]; Dose 10 µm) was “No”. The “Cytoprotective (antioxidant, anti-inflammatory and anti-ageing; useful also in the treatment of acne)” value (HDF cells [2]; Dose 10 µm) was “No”, the Cytotoxic (HDF cells [2]; Dose 10 µm) was “No” and the Irritant (HDF cells [2]; Dose 10 µm) was “Yes (↑IL-6, ↑IL-1β)”. For the same molecule, the Wound-healing (HDF cells [2]; Dose 10 µm) was “No”, the “concentrations at which toxic (irritant) effects are shown” value (HDF cells [2]; exposure for 24 hours) was “greater than or equal to 1 µM” and the “IL-6 ng/(ml* No. of cells from photo) ± SD” value (interleukin 6 (IL-6); 1 µM, 34 ng/ml TGF-β1) was 1027±36 ng/(ml* No. of cells from photo). The “IL-6 ng/(ml* No. of cells from photo) ± SD” value (interleukin 6 (IL-6); 1 µM, 100 µM H2O2) was 1034±27 ng/(ml* No. of cells from photo), the “IL-6 ng/(ml* No. of cells from photo) ± SD” value (interleukin 6 (IL-6); 1 µM, Standard conditions) was 612±31 ng/(ml* No. of cells from photo) and the “IL-6 ng/(ml* No. of cells from photo) ± SD” value (interleukin 6 (IL-6); 10 µM, 34 ng/ml TGF-β1) was 1244±58 ng/(ml* No. of cells from photo). The “IL-6 ng/(ml* No. of cells from photo) ± SD” value (interleukin 6 (IL-6); 10 µM, 100 µM H2O2) was 1710±114 ng/(ml* No. of cells from photo), the “IL-6 ng/(ml* No. of cells from photo) ± SD” value (interleukin 6 (IL-6); 10 µM, Standard conditions) was 751±93 ng/(ml* No. of cells from photo) and the “IL-6 production (effect in words)” value (interleukin 6 (IL-6); 34 ng/ml TGF-β1) was “tendency to increase IL-6 production in a dose-dependent manner”. The “IL-6 production (effect in words)” value (interleukin 6 (IL-6); 100 µM H2O2) was “tendency to increase IL-6 production in a dose-dependent manner”, the “IL-6 production (effect in words)” value (interleukin 6 (IL-6); standard conditions) was “tendency to increase IL-6 production in a dose-dependent manner” and the “collagen production (effect in words)” value ([3]; 1-10 µM (1 µM and 10 µM), 34 ng/ml TGF-β1) was “stimulates collagen production in a dose-dependent manner”. The “collagen production (effect in words)” value ([3]; 1-10 µM (1 µM and 10 µM), 100 µM H2O2) was “stimulates collagen production in a dose-dependent manner”, the “collagen production (effect in words)” value ([3]; 1-10 µM, standard conditions) was “stimulates collagen production in a dose-dependent manner” and the “% DPPH activity” value ([4]; 1 mM, 30 minutes) was 114%. For the same molecule, the “Anti-radical (skin protective)” value [4, 6] was “No”, the “Anti-radical (skin protective)” value ([4]; Dose 10 µm) was “No” and the “IL-1β ng/(ml* No. of cells from photo) ± SD” value (interleukin 1β (IL-1β); 1 µM, 34 ng/ml TGF-β1) was 207±8 ng/(ml* No. of cells from photo). The “IL-1β ng/(ml* No. of cells from photo) ± SD” value (interleukin 1β (IL-1β); 1 µM, 100 µM H2O2) was 174±20 ng/(ml* No. of cells from photo), the “IL-1β ng/(ml* No. of cells from photo) ± SD” value (interleukin 1β (IL-1β); 1 µM, Standard conditions) was 137±12 ng/(ml* No. of cells from photo) and the “IL-1β ng/(ml* No. of cells from photo) ± SD” value (interleukin 1β (IL-1β); 10 µM, 34 ng/ml TGF-β1) was 267±15 ng/(ml* No. of cells from photo). The “IL-1β ng/(ml* No. of cells from photo) ± SD” value (interleukin 1β (IL-1β); 10 µM, 100 µM H2O2) was 236±8 ng/(ml* No. of cells from photo), the “IL-1β ng/(ml* No. of cells from photo) ± SD” value (interleukin 1β (IL-1β); 10 µM, Standard conditions) was 155±7 ng/(ml* No. of cells from photo) and the “IL-1β production (effect in words)” value (interleukin 1β (IL-1β); 34 ng/ml TGF-β1) was “tendency to increase IL-1β production in a dose-dependent manner”. The “IL-1β production (effect in words)” value (interleukin 1β (IL-1β); 100 µM H2O2) was “tendency to increase IL-1β production in a dose-dependent manner”, the “IL-1β production (effect in words)” value (interleukin 1β (IL-1β); standard conditions) was “tendency to increase IL-1β production in a dose-dependent manner” and the “No. of cells from photo ± SD” value (HDF cells [5]; 1 µM, 34 ng/ml TGF-β1) was 111±18. The “No. of cells from photo ± SD” value (HDF cells [5]; 1 µM, 100 µM H2O2) was 143±17, the “No. of cells from photo ± SD” value (HDF cells [5]; 1 µM, Standard conditions) was 144±12 and the “No. of cells from photo ± SD” value (HDF cells [5]; 10 µM, 34 ng/ml TGF-β1) was 86±6. For the same molecule, the “No. of cells from photo ± SD” value (HDF cells [5]; 10 µM, 100 µM H2O2) was 114±0 and the “No. of cells from photo ± SD” value (HDF cells [5]; 10 µM, Standard conditions) was 129±27.
